For test [1], the target named is HLA A*0201 on TAP deficient T2 cells (Homo sapiens, UniProt P04439, D140Y/D185E/D98H/E176V/E277Q/G131W/G231S/I119V/I121R/I166T/I218V/L300P/L318F/N151K/N90K/P208A/P217A/Q86G/Q94H/R138H/R169H/T345S). Description: T2-binding assay (cell surface pMHCI stabilization, FACS). Type of test: cell-based.
The target of test [2] is T1, HLA A*0201 (soluble recombinant pMHCI) (Homo sapiens, UniProt P04439, D140Y/D185E/D98H/E176V/E277Q/G131W/G231S/I119V/I121R/I166T/I218V/L300P/L318F/N151K/N90K/P208A/P217A/Q86G/Q94H/R138H/R169H/T345S).
T1 construct: made in house
In words: Real time SPR pMHC stability assay. The following applies: pMHCI half-life converted from Langmuir dissociation analysis; BIAcore 3000, CM5 chip, ∼500 RUs, 10 μl/min, 15,000 s. Format: binding. In general terms: In SPR one partner is held on a chip, and binding of the other changes the refractive index at the surface.

The record followed here is paper PMC3032881 (Molecular Immunology, 2011).

Peptide text beside a SMILES is read from it.

Broadly, the EC50 is the concentration at which the effect is half-maximal. A lower EC50 goes with a more potent agent. Molecule `CC(C)C[C@H](NC(=O)[C@@H](N)C(C)C)C(=O)N[C@@H](CO)C(=O)N[C@@H](CC(N)=O)C(=O)N[C@@H](CC(=O)O)C(=O)N[C@H](C(=O)N[C@@H](CS)C(=O)N[C@@H](C)C(=O)N[C@@H](CCC(N)=O)C(=O)N[C@H](C(=O)O)C(C)C)C(C)C` had a 50% effective concentration (EC50) in test [1] of 23.9 µM.
On the same count and under the same terms, as for `CC[C@H](C)[C@H](NC(=O)[C@H](Cc1c[nH]c2ccccc12)NC(=O)[C@H](CCSC)NC(=O)[C@H](CC(C)C)NC(=O)[C@H](CC(C)C)NC(=O)[C@@H](N)CO)C(=O)N[C@H](C(=O)N[C@@H](CCC(N)=O)C(=O)N[C@@H](CC(C)C)C(=O)O)[C@@H](C)O`, the figure is 43.2 µM.
For `CC(C)C[C@H](NC(=O)[C@@H](N)Cc1ccc(O)cc1)C(=O)N[C@@H](CCC(=O)O)C(=O)N1CCC[C@H]1C(=O)NCC(=O)N1CCC[C@H]1C(=O)N[C@H](C(=O)N[C@@H](C)C(=O)O)C(C)C` (H-YLEPGPVA-OH; N-terminus and C-terminus assumed), in test [2], the “Half-life” value was 5.8 h.
In test [1], `CC[C@H](C)[C@H](NC(=O)[C@@H](N)C(C)C)C(=O)N[C@@H](CO)C(=O)N[C@@H](CC(N)=O)C(=O)N[C@@H](CC(=O)O)C(=O)N[C@H](C(=O)N[C@@H](CS)C(=O)N[C@@H](C)C(=O)N[C@@H](CCC(N)=O)C(=O)N[C@H](C(=O)O)C(C)C)C(C)C` (H-VISNDVCAQV-OH) showed an EC50 of 50 µM.
